Laboratory results taken from ChEMBL document CHEMBL5385875, “Tumor killing by a dietary curcumin mono-carbonyl analog that works as a selective ROS generator via TrxR inhibition” (Eur J Med Chem, 2023).
Calls of active or inactive are those of the source. The rule behind the calls is not given here.

Legend:
NCI-H460 [1] = assay: Induction of intracellular ROS accumulation in human NCI-H460 cells at 0.5 to 2 uM by DCFH-DA dye based fluorescence assay; format: functional, cell-based; settings: dose 0.5-2 µM, time 1-12 hrs, TDE = time-dependent effect
NCI-H460 [2] = assay: Antitumor activity against human NCI-H460 cells xenografted in BALB/c nude mouse assessed as induction of apoptosis at 5 to 15 mg/kg by H and E staining based analysis; format: functional, organism-based; settings: dose 5-15 mg/kg
[3] = target: T1, Thioredoxin reductase (Homo sapiens) (UniProt Q16881+Q9NNW7+Q86VQ6); assay: Inhibition of TrxR in human NCI-H460 cells measured after 6 hrs by fluorescence microscopy based analysis; format: cell-based; settings: dose 0.5-2 µM
NCI-H460 [4] = assay: Induction of ferroptosis in human NCI-H460 cells assessed as increase in intracellular […] by measuring increase in red fluorescence intensity at 0.25 to 0.5 uM incubated for 40 hrs by C11-BODIPY staining based microscopy analysis; format: functional, cell-based; settings: dose 0.25-0.5 µM
NCI-H460 [5] = assay: Induction of apoptosis in human NCI-H460 cells assessed as reduction of mitochondrial membrane potential at 0.5 to 2 uM incubated for 12 to 36 hrs in presence of NAC by JC-1 staining based flow cytometry analysis; format: functional, cell-based; settings: dose 0.5-2 µM, time 12-36 hrs
[6] = Toxicity in BALB/c nude mouse assessed as effect on kidney at 5 to 15 mg/kg, ip measured every two days for 27 days by H and E staining based analysis; format: organism-based; settings: in vivo, 648 h, dose 5-15 mg/kg, time 27 day
[7] = Toxicity in BALB/c nude mouse assessed as effect on liver at 5 to 15 mg/kg, ip measured every two days for 27 days by H and E staining based analysis; format: organism-based; settings: in vivo, 648 h, dose 5-15 mg/kg, time 27 day
NCI-H460 [8] = assay: Downregulation of Bcl-2 expression in human NCI-H460 cells at 1 to 2 uM measured after 48 hrs by immunoblot analysis; format: functional, cell-based; settings: dose 1-2 µM
NCI-H460 [9] = assay: Induction of ferroptosis in human NCI-H460 cells assessed as reduction in GPX4 protein expression measured after 24 hrs by immunoblot analysis; format: functional, cell-based; settings: dose 1-2 µM
NCI-H460 [10] = assay: Upregulation of caspase-3 activation in human NCI-H460 cells at 1 to 2 uM measured after 48 hrs by immunoblot analysis; format: functional, cell-based; settings: dose 1-2 µM
NCI-H460 [11] = assay: Upregulation of Bax expression in human NCI-H460 cells at 1 to 2 uM measured after 48 hrs by immunoblot analysis; format: functional, cell-based; settings: dose 1-2 µM
[12] = Toxicity in BALB/c nude mouse assessed as animal death at 5 to 15 mg/kg, ip measured every two days for 27 days; format: organism-based; settings: in vivo, 648 h, dose 5-15 mg/kg, time 27 day
NCI-H460 [13] = assay: Antitumor activity against human NCI-H460 cells xenografted in BALB/c nude mouse assessed as induction of […] at 5 to 15 mg/kg by TUNEL staining based analysis; format: functional, organism-based; settings: dose 5-15 mg/kg
[14] = Toxicity in BALB/c nude mouse assessed as effect on liver at 5 to 15 mg/kg, ip measured every two days for 27 days; format: organism-based; settings: in vivo, 648 h, dose 5-15 mg/kg, time 27 day
[15] = target: T1, Thioredoxin reductase (Homo sapiens); assay: Inhibition of TrxR in human NCI-H460 cells at 2 uM measured after 6 hrs by DTNB reduction assay relative to control; format: cell-based
[16] = Cytotoxicity against human MRC5 cells assessed as reduction in cell viability incubated for 48 hrs by MTT assay; format: toxicity, cell-based
[17] = Selectivity index, ratio of IC50 for human MRC5 cells to IC50 for human NCI-H460 cells; format: toxicity; settings: MRC5 cells versus NCI-H460 cells, read-out: Ratio IC50
NCI-H460 [18] = assay: Induction of apoptosis in human NCI-H460 cells assessed as reduction of mitochondrial membrane potential at 0.5 to 2 uM by JC-1 staining based flow cytometry analysis; format: functional, cell-based; settings: dose 0.5-2 µM, time 12-36 hrs, TDE = time-dependent effect
NCI-H460 [19] = assay: Induction of intracellular ROS accumulation in human NCI-H460 cells incubated for 1 to 12 hrs by DCFH-DA dye based fluorescence assay; format: functional, cell-based; settings: dose 0.5-2 µM, time 1-12 hrs
NCI-H460 [20] = assay: Antitumor activity against human NCI-H460 cells xenografted in BALB/c nude mouse assessed as inhibition of tumor formation administered as IP dose and measured every two days for 27 days; format: functional; settings: dose 5-15 mg/kg, time 27.0 day
NCI-H460 [21] = assay: Cytotoxicity against human NCI-H460 cells assessed as reduction in cell viability at 0.5 to 1 uM measured after 48 hrs in presence of ferrostatin-1 by MTT assay; format: functional, cell-based; settings: dose 0.5-1 µM
[22] = Toxicity in BALB/c nude mouse assessed as effect on kidney at 5 to 15 mg/kg, ip measured every two days for 27 days; format: organism-based; settings: in vivo, 648 h, dose 5-15 mg/kg, time 27 day
MRC5 = assay: Induction of intracellular ROS accumulation in human MRC5 cells at upto 2 uM incubated for 6 hrs by DCFH-DA dye based fluorescence assay; format: functional, cell-based
NCI-H460 [23] = assay: Induction of ferroptosis in human NCI-H460 cells assessed as increase in MDA levels at 2 uM measured after 40 hrs in presence of VE by MDA assay; format: functional, cell-based
[24] = Toxicity in BALB/c nude mouse assessed as effect on lung at 5 to 15 mg/kg, ip measured every two days for 27 days; format: organism-based; settings: in vivo, 648 h, dose 5-15 mg/kg, time 27 day
NCI-H460 [25] = assay: Cytotoxicity against human NCI-H460 cells assessed as reduction in cell viability at 0.5 to 1 uM measured after 48 hrs in presence of erastin by MTT assay; format: functional, cell-based; settings: dose 0.5-1 µM
NCI-H460 [26] = assay: Inhibition of TrxR protein expression in human NCI-H460 cells measured after 6 hrs by immunoblot analysis; format: functional, cell-based; settings: dose 0.5-2 µM
[27] = Toxicity in BALB/c nude mouse assessed as effect on animal diet status at 5 to 15 mg/kg, ip measured every two days for 27 days; format: organism-based; settings: in vivo, 648 h, dose 5-15 mg/kg, time 27 day
[28] = Toxicity in BALB/c nude mouse assessed as effect on spleen at 5 to 15 mg/kg, ip measured every two days for 27 days; format: organism-based; settings: in vivo, 648 h, dose 5-15 mg/kg, time 27 day
NCI-H460 [29] = assay: Cytotoxicity against human NCI-H460 cells assessed as reduction in cell viability incubated for 48 hrs by MTT assay; format: functional, cell-based; settings: NCI-H460, 48 h
NCI-H460 [30] = assay: Cytotoxicity against human NCI-H460 cells assessed as reduction in cell viability at 0.5 to 2 uM incubated for 48 hrs in presence of BSO by MTT assay; format: functional, cell-based; settings: dose 0.5-2 µM
NCI-H460 [31] = assay: Upregulation of caspase-9 activation in human NCI-H460 cells at 1 to 2 uM measured after 48 hrs by immunoblot analysis; format: functional, cell-based; settings: dose 1-2 µM
NCI-H460 [32] = assay: Induction of ferroptosis in human NCI-H460 cells assessed as increase in MDA levels at 2 uM measured after 40 hrs in presence of erastin by MDA assay; format: functional, cell-based
NCI-H460 [33] = assay: Cytotoxicity against human NCI-H460 cells assessed as reduction in cell viability at 0.5 to 1 uM measured after 48 hrs in presence of 3-methuladenine by MTT assay; format: functional, cell-based; settings: dose 0.5-1 µM
NCI-H460 [34] = assay: Induction of ROS accumulation in human NCI-H460 cells assessed as reduction in GSH levels by measuring yellow green fluorescence incubated for 9 hrs by fluorescence microscope based analysis; format: functional, cell-based
NCI-H460 [35] = assay: Upregulation of Bax expression in human NCI-H460 cells at 1 to 2 uM measured after 48 hrs in presence of NAC by immunoblot analysis; format: functional, cell-based; settings: dose 1-2 µM
[36] = Toxicity in BALB/c nude mouse assessed as effect on body weight at 5 to 15 mg/kg, ip measured every two days for 27 days; format: organism-based; settings: in vivo, 648 h, dose 5-15 mg/kg, time 27 day

O=C1/C(=C/c2cccc(C(F)(F)F)c2)CNC/C1=C\c1cccc(C(F)(F)F)c1
Activity (NCI-H460 [1]): Tde | Activity (NCI-H460 [2]): Active | inhibition [3]: Dose-Dependent Effect | Activity (NCI-H460 [4]): Active | Activity (NCI-H460 [5]): inactive | Activity [6]: Non-Toxic | Activity [7]: Non-Toxic | Activity (NCI-H460 [8]): Active | Activity (NCI-H460 [9]): Dose-Dependent Effect | Activity (NCI-H460 [10]): Active | Activity (NCI-H460 [11]): Active | Activity [12]: Non-Toxic | Activity (NCI-H460 [13]): Active | Activity [14]: Non-Toxic | inhibition [15]: 59% | IC50 at 48 h [16]: 14.1 µM | selectivity ratio [17]: 32 | Activity (NCI-H460 [18]): Tde | Activity (NCI-H460 [19]): Dose-Dependent Effect | Activity (NCI-H460 [20]): Dose-Dependent Effect | Activity (NCI-H460 [21]): Active | Activity [22]: Non-Toxic | Activity (MRC5): inactive | Activity (NCI-H460 [23]): inactive | Activity [24]: Non-Toxic | Activity (NCI-H460 [25]): Active | inhibition (NCI-H460 [26]): Dose-Dependent Effect | Activity [27]: Non-Toxic | Activity [28]: Non-Toxic | IC50 (NCI-H460 [29]): 0.44 µM | Activity (NCI-H460 [30]): Active | Activity (NCI-H460 [31]): Active | Activity (NCI-H460 [32]): Active | Activity (NCI-H460 [33]): inactive | Activity (NCI-H460 [34]): Dose-Dependent Effect | Activity (NCI-H460 [35]): inactive | Activity [36]: Non-Toxic
